Like-named read-outs stand apart in the source and are kept apart here.
Experiments:
K-562 = experiment: SRB colorimetric cell growth inhibition assay, K-562; type: cell-based; conditions: Homo sapiens; for GI50: GI=growth inhibition, read-out: GI50 K-562; for IC (TGI): total growth inhibition (cytostatic effect), read-out: TGI K-562; for CC50: cell killing (cytotoxic effect)
Summary of the method: (§1)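 In this cytotoxicity screen, compound stays in contact with the cultured human cancer cells without washout; sulforhodamine B binding gives the measure of cell number, and endpoints separate growth inhibition from cytostasis (TGI) and killing (LC).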

IGROV-ET = experiment: SRB colorimetric cell growth inhibition assay, IGROV-ET (ET-743 resistant); type: cell-based; conditions: Homo sapiens; for GI50: GI=growth inhibition, read-out: GI50 IGROV-ET; for IC (TGI): total growth inhibition (cytostatic effect), read-out: TGI IGROV-ET; for CC50: cell killing (cytotoxic effect)
Summary of the method: as §1

LoVo = experiment: SRB colorimetric cell growth inhibition assay, LoVo; type: cell-based; conditions: Homo sapiens; for CC50: cell killing (cytotoxic effect); for GI50: GI=growth inhibition, read-out: GI50 LOVO; for IC (TGI): total growth inhibition (cytostatic effect), read-out: TGI LOVO
Summary of the method: as §1

A-549 = experiment: SRB colorimetric cell growth inhibition assay, A-549; type: cell-based; conditions: Homo sapiens; for GI50: GI=growth inhibition, read-out: GI50 A-549; for IC (TGI): total growth inhibition (cytostatic effect), read-out: TGI A-549; for CC50: cell killing (cytotoxic effect)
Summary of the method: as §1

SK-BR-3 = experiment: SRB colorimetric cell growth inhibition assay, SK-BR-3; type: cell-based; conditions: Homo sapiens; for GI50: GI=growth inhibition, read-out: GI50 SK-BR-3; for IC (TGI): total growth inhibition (cytostatic effect), read-out: TGI SK-BR-3; for CC50: cell killing (cytotoxic effect)
Summary of the method: as §1

SK-MEL-28 = experiment: SRB colorimetric cell growth inhibition assay, SK-MEL-28; type: cell-based; conditions: Homo sapiens; for GI50: GI=growth inhibition, read-out: GI50 MEL-28; for IC (TGI): total growth inhibition (cytostatic effect), read-out: TGI MEL-28; for CC50: cell killing (cytotoxic effect)
Summary of the method: as §1

DU-145 = experiment: SRB colorimetric cell growth inhibition assay, DU-145; type: cell-based; conditions: Homo sapiens; for GI50: GI=growth inhibition, read-out: GI50 DU-145; for IC (TGI): total growth inhibition (cytostatic effect), read-out: TGI DU-145; for CC50: cell killing (cytotoxic effect)
Summary of the method: as §1

human topoisomerase I = target: T1, human topoisomerase I (Homo sapiens, UniProt P11387); experiment: Topoisomerase I DNA relaxation assay (supercoiled plasmid DNA); type: biochemical; conditions: supercoiled plasmid DNA, each compound tested at 1 μM, agarose gel with ethidium bromide
T1 sequence (P11387 1-765): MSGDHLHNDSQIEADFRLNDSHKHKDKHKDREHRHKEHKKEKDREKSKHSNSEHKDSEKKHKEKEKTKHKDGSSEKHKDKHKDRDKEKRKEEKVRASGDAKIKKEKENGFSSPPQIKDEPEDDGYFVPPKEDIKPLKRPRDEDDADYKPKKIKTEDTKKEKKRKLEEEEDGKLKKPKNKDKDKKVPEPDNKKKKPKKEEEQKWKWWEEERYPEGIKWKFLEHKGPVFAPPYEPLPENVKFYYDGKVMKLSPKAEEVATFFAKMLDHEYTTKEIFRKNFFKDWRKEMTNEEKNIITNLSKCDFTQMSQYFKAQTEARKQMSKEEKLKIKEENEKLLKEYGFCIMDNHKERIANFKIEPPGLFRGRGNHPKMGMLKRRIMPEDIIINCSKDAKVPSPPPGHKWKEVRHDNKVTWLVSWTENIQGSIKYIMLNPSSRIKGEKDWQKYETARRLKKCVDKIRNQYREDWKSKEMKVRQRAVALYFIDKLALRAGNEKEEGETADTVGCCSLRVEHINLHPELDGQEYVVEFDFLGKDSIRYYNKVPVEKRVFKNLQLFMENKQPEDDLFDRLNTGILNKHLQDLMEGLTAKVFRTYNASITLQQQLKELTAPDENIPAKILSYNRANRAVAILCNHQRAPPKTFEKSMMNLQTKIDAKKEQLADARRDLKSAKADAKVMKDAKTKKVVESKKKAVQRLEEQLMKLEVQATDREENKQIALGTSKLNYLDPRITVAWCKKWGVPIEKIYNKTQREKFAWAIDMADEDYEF
Summary of the method: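 Test compounds (1 μM each) were present during topoisomerase I relaxation of supercoiled plasmid DNA. Relaxation was assessed on ethidium bromide-stained agarose gels.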

IGROV = experiment: SRB colorimetric cell growth inhibition assay, IGROV; type: cell-based
Summary of the method: as §1

LoVo-Dox = experiment: SRB colorimetric cell growth inhibition assay, LoVo-Dox (MDR); type: cell-based; conditions: Homo sapiens; for GI50: GI=growth inhibition, read-out: GI50 LOVO-DOX; for IC (TGI): total growth inhibition (cytostatic effect), read-out: TGI LOVO-DOX; for CC50: cell killing (cytotoxic effect)
Summary of the method: as §1

LNCaP = experiment: SRB colorimetric cell growth inhibition assay, LNCaP; type: cell-based; conditions: Homo sapiens, LNCaP; for GI50: GI=growth inhibition, read-out: GI50 LN-caP; for IC (TGI): total growth inhibition (cytostatic effect), read-out: TGI LN-caP; for CC50: cell killing (cytotoxic effect)
Summary of the method: as §1

HT-29 = experiment: SRB colorimetric cell growth inhibition assay, HT-29; type: cell-based; conditions: Homo sapiens; for GI50: GI=growth inhibition, read-out: GI50 HT-29; for IC (TGI): total growth inhibition (cytostatic effect), read-out: TGI HT-29; for CC50: cell killing (cytotoxic effect)
Summary of the method: as §1

PANC-1 = experiment: SRB colorimetric cell growth inhibition assay, PANC-1; type: cell-based; conditions: Homo sapiens; for GI50: GI=growth inhibition, read-out: GI50 PANC-1; for IC (TGI): total growth inhibition (cytostatic effect), read-out: TGI PANC-1; for CC50: cell killing (cytotoxic effect)
Summary of the method: as §1

[1] = Homo sapiens, IGROV; GI=growth inhibition; read-out: GI50 IGROV
[2] = Homo sapiens; IGROV; total growth inhibition (cytostatic effect); read-out: TGI IGROV
[3] = IGROV-ET, read-out: LC50 IGROV-ET
[4] = A549, A-549, read-out: LC50 A-549
[5] = SK-BR-3, SK-BR-3, read-out: LC50 SK-BR-3
[6] = SK-MEL-28, MEL-28, read-out: LC50 MEL-28
[7] = DU-145, DU-145, read-out: LC50 DU-145
[8] = Homo sapiens, IGROV; cell killing (cytotoxic effect); read-out: LC50 IGROV
[9] = LOVO-DOX, read-out: LC50 LOVO-DOX
[10] = HT-29, HT-29, read-out: LC50 HT-29
[11] = PANC-1, PANC-1, read-out: LC50 PANC-1

## COc1cc(-c2c3c4cc(OC)c(O)cc4oc(=O)c3n3ccc4cc(O)c(OC)cc4c23)ccc1O [Compound 3, lamellarin D, reference compound]
K-562; K562, K-562
  GI50: 86.9 nM
  IC (TGI): 791 nM
K-562; K562, read-out: LC50 K-562, K-562
  CC50: 8150 nM
IGROV-ET; IGROV-ET
  GI50: 214 nM
  IC (TGI): 1160 nM
IGROV-ET; read-out: LC50 IGROV-ET, IGROV-ET
  CC50: 20000 nM
LoVo; LoVo, read-out: LC50 LOVO, LOVO
  CC50: 2000 nM
LoVo; LoVo
  GI50: 398 nM
  IC (TGI): 965 nM
A-549; A549, A-549
  GI50: 20.4 nM
  IC (TGI): 1140 nM
A-549; A549, read-out: LC50 A-549, A-549
  CC50: 15500 nM
SK-BR-3; SK-BR-3, SK-BR-3
  GI50: 106 nM
  IC (TGI): 767 nM
SK-BR-3; SK-BR-3, read-out: LC50 SK-BR-3, SK-BR-3
  CC50: 7690 nM
SK-MEL-28; SK-MEL-28, MEL-28
  GI50: 88.1 nM
  IC (TGI): 1770 nM
SK-MEL-28; SK-MEL-28, read-out: LC50 MEL-28, MEL-28
  CC50: 11300 nM
DU-145; DU-145, DU-145
  GI50: 19 nM
  IC (TGI): 79.7 nM
DU-145; DU-145, read-out: LC50 DU-145, DU-145
  CC50: 20000 nM
Human topoisomerase I
  stimulation of DNA cleavage by topoisomerase I / inhibition of topoisomerase I (nicked DNA band) in DNA relaxation assay: significantly amplified
IGROV; Homo sapiens, IGROV, read-out: LC50 IGROV, IGROV; cell killing (cytotoxic effect)
  CC50: 20000 nM
IGROV; [1]
  GI50: 236 nM
IGROV; [2]
  IC (TGI): 1060 nM
LoVo-Dox; LOVO-DOX
  GI50: 420 nM
  IC (TGI): 1670 nM
LoVo-Dox; read-out: LC50 LOVO-DOX, LOVO-DOX
  CC50: 20000 nM
LNCaP; LN-caP
  GI50: 123 nM
  IC (TGI): 398 nM
LNCaP; read-out: LC50 LN-caP, LN-caP
  CC50: 1060 nM
HT-29; HT-29, HT-29
  GI50: 5330 nM
  IC (TGI): 19000 nM
HT-29; HT-29, read-out: LC50 HT-29, HT-29
  CC50: 20000 nM
PANC-1; PANC-1, PANC-1
  GI50: 248 nM
  IC (TGI): 2200 nM
PANC-1; PANC-1, read-out: LC50 PANC-1, PANC-1
  CC50: 20000 nM

## COc1cc(-c2c3n(c4c(=O)oc5cc(OC(=O)[C@H](C)NC(=O)[C@H](C)NC(=O)OC(C)(C)C)c(OC)cc5c24)CCc2cc(OC(=O)[C@H](C)NC(=O)[C@H](C)NC(=O)OC(C)(C)C)c(OC)cc2-3)ccc1OC(=O)[C@H](C)NC(=O)[C@H](C)NC(=O)OC(C)(C)C [Compound 7]
K-562; K562, K-562
  GI50: 596 nM
  IC (TGI): 2680 nM
K-562; K562, K-562, read-out: LC50 K-562
  CC50: 8140 nM
IGROV-ET; IGROV-ET
  GI50: 1860 nM
  IC (TGI): 4580 nM
IGROV-ET; [3]
  CC50: 8140 nM
LoVo; LoVo, read-out: LC50 LOVO
  CC50: 8140 nM
LoVo; LOVO
  GI50: 2000 nM
  IC (TGI): 5050 nM
A-549; A549, A-549
  GI50: 969 nM
  IC (TGI): 2960 nM
A-549; [4]
  CC50: 8140 nM
SK-BR-3; [5]
  CC50: 5980 nM
SK-BR-3; SK-BR-3
  GI50: 1140 nM
  IC (TGI): 2610 nM
SK-MEL-28; SK-MEL-28, MEL-28
  GI50: 652 nM
  IC (TGI): 1640 nM
SK-MEL-28; [6]
  CC50: 3750 nM
DU-145; [7]
  CC50: 5410 nM
DU-145; DU-145
  GI50: 993 nM
  IC (TGI): 2310 nM
IGROV; [8]
  CC50: 5790 nM
IGROV; Homo sapiens; IGROV; GI=growth inhibition; read-out: GI50 IGROV
  GI50: 1230 nM
IGROV; [2]
  IC (TGI): 2670 nM
LoVo-Dox; LOVO-DOX
  GI50: 3660 nM
  IC (TGI): 8140 nM
LoVo-Dox; [9]
  CC50: 8140 nM
LNCaP; LN-caP
  GI50: 425 nM
  IC (TGI): 1360 nM
LNCaP; LN-caP, read-out: LC50 LN-caP
  CC50: 3610 nM
HT-29; [10]
  CC50: 8140 nM
HT-29; HT-29
  GI50: 871 nM
  IC (TGI): 3310 nM
PANC-1; [11]
  CC50: 8040 nM
PANC-1; PANC-1, PANC-1
  IC (TGI): 3310 nM
PANC-1; PANC-1
  GI50: 1360 nM

## COc1cc(-c2c3n(c4c(=O)oc5cc(OC(=O)CCc6ccccc6)c(OC)cc5c24)CCc2cc(OC(=O)CCc4ccccc4)c(OC)cc2-3)ccc1OC(=O)CCc1ccccc1 [Compound 11]
IGROV-ET; IGROV-ET
  GI50: 5530 nM
  IC (TGI): 11100 nM
IGROV-ET; [3]
  CC50: 11100 nM
LoVo; LoVo
  GI50: 42.4 nM
  IC (TGI): 1160 nM
LoVo; LoVo, read-out: LC50 LOVO
  CC50: 10400 nM
A-549; A549, A-549
  GI50: 128 nM
  IC (TGI): 1540 nM
A-549; [4]
  CC50: 11100 nM
SK-BR-3; SK-BR-3, SK-BR-3
  GI50: 187 nM
  IC (TGI): 1200 nM
SK-BR-3; [5]
  CC50: 6660 nM
SK-MEL-28; SK-MEL-28, MEL-28
  GI50: 200 nM
  IC (TGI): 1180 nM
SK-MEL-28; [6]
  CC50: 6180 nM
DU-145; DU-145, DU-145
  GI50: 35.3 nM
  IC (TGI): 151 nM
DU-145; [7]
  CC50: 2780 nM
Human topoisomerase I
  stimulation of DNA cleavage by topoisomerase I / inhibition of topoisomerase I (nicked DNA band) in DNA relaxation assay: inactive
IGROV; [1]
  GI50: 267 nM
IGROV; [8]
  CC50: 5880 nM
IGROV; Homo sapiens, IGROV; total growth inhibition (cytostatic effect); read-out: TGI IGROV
  IC (TGI): 1140 nM
LoVo-Dox; LOVO-DOX
  GI50: 11100 nM
  IC (TGI): 11100 nM
LoVo-Dox; [9]
  CC50: 11100 nM
HT-29; HT-29, HT-29
  GI50: 38.4 nM
  IC (TGI): 175 nM
HT-29; [10]
  CC50: 8230 nM
PANC-1; PANC-1, PANC-1
  GI50: 214 nM
  IC (TGI): 1760 nM
PANC-1; [11]
  CC50: 11100 nM

Source: patent publication US7396837B2, “Antitumoral analogs of lamellarins” (Pharma Mar, S.A.U., priority 2002, dated 2008)
